Measured values as given in patent US12018033B2, “Inhibitors of protein arginine deiminases” (Forward Therapeutics, Inc., priority 2018, dated 2024).

molecular target: T1, Recombinant human PAD4 (2-663) (Homo sapiens, UniProt Q9UM07); assay: PAD4 Inhibition Assay; format: biochemical; conditions: 60 mins pre-incubation at RT; substrate BAEE with CaCl2; fluorescent signal (λex 405/λem 460)
T1 construct: Recombinant human PAD4 (2-663) was expressed in E. coli; made in house; host or cells: E. coli
Experimental: Protein: Recombinant human PAD4 (2-663) was expressed in E. coli as an N-terminal Strep-tag and C-terminal 6-his tag fusion protein. Protein was purified using Strep-tactin resin followed by size exclusion chromatography. Tags were not removed during purification. Activity of the protein was determined using ammonia quantification assay.
PAD4 enzyme (10 μL) was diluted to concentration of 75 nM in assay buffer A (100 mM HEPES, pH 8, 50 mM NaCl, 2 mM DTT, 0.6 mg/mL BSA and 0.5% DMSO) and added to wells containing 10 μL of various concentrations of test compound, or DMSO vehicle in buffer A with 1.5% final DMSO concentration in a Corning high volume 384 well black plate. Following 60 mins pre-incubation at RT with gentle shaking, the reaction was initiated by the addition of 10 μL of substrate buffer containing 3 mM N-α-benzoyl-L-arginine ethyl ester (BAEE) and 600 μM CaCl2) in assay buffer A. The reaction was stopped after 60 mins with the addition of 15 μL stop/detection buffer containing 7.5 mM phthalaldehyde, 50 mM EDTA and 7.5 mM DTT in assay buffer A. Quenched reactions were incubated at RT for 45 mins before measuring fluorescent signal (λex 405/λem 460) on an Envision plate reader (Perkin Elmer Life Sciences, Waltham, Mass., USA).

T1 sequence (Q9UM07 2-663): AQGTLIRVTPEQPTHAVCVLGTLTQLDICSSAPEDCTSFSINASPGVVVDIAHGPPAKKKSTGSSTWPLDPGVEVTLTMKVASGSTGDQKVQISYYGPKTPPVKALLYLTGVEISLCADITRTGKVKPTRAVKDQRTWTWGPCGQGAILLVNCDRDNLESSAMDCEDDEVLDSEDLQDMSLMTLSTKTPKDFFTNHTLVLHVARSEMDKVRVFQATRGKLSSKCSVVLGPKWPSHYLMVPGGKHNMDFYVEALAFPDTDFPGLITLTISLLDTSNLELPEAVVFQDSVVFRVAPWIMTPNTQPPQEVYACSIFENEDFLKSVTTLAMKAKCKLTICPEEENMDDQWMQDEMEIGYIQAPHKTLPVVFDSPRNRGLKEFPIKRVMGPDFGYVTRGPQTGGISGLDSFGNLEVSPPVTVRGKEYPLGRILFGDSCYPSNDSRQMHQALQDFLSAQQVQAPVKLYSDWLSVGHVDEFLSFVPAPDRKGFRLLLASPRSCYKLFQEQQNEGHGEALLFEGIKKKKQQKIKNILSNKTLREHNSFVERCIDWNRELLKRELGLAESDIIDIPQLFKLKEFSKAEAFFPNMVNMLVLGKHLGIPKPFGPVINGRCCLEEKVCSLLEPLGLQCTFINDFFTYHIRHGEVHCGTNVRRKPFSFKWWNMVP

IC50 | SMILES
≤ 1 µM | N[C@@H]1CCN(C(=O)c2cc3cc(Br)c(F)c(F)c3[nH]2)C1 [Example 5, (R)-(3-Aminopyrrolidin-1-yl)(5-bromo-6,7-difluoro-1H-indol-2-yl)methanone]
10 to 100 µM | CC(C)C[C@@H](CN)NC(=O)c1cc2cc(Cl)c(F)c(F)c2[nH]1 [Example 19, (S)-N-(1-Amino-4-methylpentan-2-yl)-5-chloro-6,7-difluoro-1H-indole-2-carboxamide]
1 to 10 µM | N[C@H]1CN(C(=O)c2cc3cc(Cl)c(F)c(F)c3[nH]2)C[C@@H]1F [Example 37, ((3S,4S)-3-Amino-4-fluoropyrrolidin-1-yl)(5-chloro-6,7-difluoro-1H-indol-2-yl)methanone]
10 to 100 µM | O=C(N[C@@H]1CCNC1)c1cc2cc(Cl)c(F)c(F)c2[nH]1 [Example 25, (R)-5-Chloro-6,7-difluoro-N-(pyrrolidin-3-yl)-1H-indole-2-carboxamide]
10 to 100 µM | CO[C@H]1CNC[C@@H]1NC(=O)c1cc2cc(Cl)c(F)c(F)c2[nH]1 [Example 33, 5-Chloro-6,7-difluoro-N-((3S,4S)-4-methoxypyrrolidin-3-yl)-1H-indole-2-carboxamide]
≤ 1 µM | N[C@H]1CN(C(=O)c2cc3cc(Cl)c(F)c(F)c3[nH]2)C[C@@H]1O [Example 22, ((3S,4S)-3-Amino-4-hydroxypyrrolidin-1-yl)(5-chloro-6,7-difluoro-1H-indol-2-yl)methanone]
10 to 100 µM | N[C@@H]1CCCN(C(=O)c2cc3cc(Cl)c(F)c(F)c3[nH]2)C1 [Example 38, (R)-(3-Aminopiperidin-1-yl)(5-chloro-6,7-difluoro-1H-indol-2-yl)methanone]
1 to 10 µM | O=C(N[C@@H]1CNC[C@@H]1O)c1cc2cc(Cl)c(F)c(F)c2[nH]1 [Example 16, 5-Chloro-6,7-difluoro-N-((3R,4S)-4-hydroxypyrrolidin-3-yl)-1H-indole-2-carboxamide]
1 to 10 µM | N[C@H]1CN(C(=O)c2cc3cc(I)c(F)c(F)c3[nH]2)C[C@@H]1O [Example 66, ((3S,4S)-3-amino-4-hydroxypyrrolidin-1-yl)(6,7-difluoro-5-iodo-1H-indol-2-yl)methanone]
10 to 100 µM | CC1(NC(=O)c2cc3cc(Cl)c(F)c(F)c3[nH]2)CNC1 [Example 53, 5-chloro-6,7-difluoro-N-(3-methylazetidin-3-yl)-1H-indole-2-carboxamide]
≤ 1 µM | C[C@H]1CNC[C@H]1NC(=O)c1cc2cc(Cl)c(F)c(F)c2[nH]1 [Example 14, 5-Chloro-6,7-difluoro-N-((3S,4S)-4-methylpyrrolidin-3-yl)-1H-indole-2-carboxamide]
10 to 100 µM | O=C(N[C@@H]1CCCNC1)c1cc2cc(Cl)c(F)c(F)c2[nH]1 [Example 40, (R)-5-Chloro-6,7-difluoro-N-(piperidin-3-yl)-1H-indole-2-carboxamide]
1 to 10 µM | N[C@@H]1CCN(C(=O)c2cc3cc(F)c(Cl)c(F)c3[nH]2)C1 [Example 4, (R)-(3-Aminopyrrolidin-1-yl)(6-chloro-5,7-difluoro-1H-indol-2-yl)methanone]
1 to 10 µM | C[C@H]1NC[C@H]1NC(=O)c1cc2cc(Cl)c(F)c(F)c2[nH]1 [Example 55, 5-chloro-6,7-difluoro-N-((2R,3R)-2-methylazetidin-3-yl)-1H-indole-2-carboxamide]
10 to 100 µM | C[C@H]1CCNC[C@@H]1NC(=O)c1cc2cc(Cl)c(F)c(F)c2[nH]1 [Example 41, 5-Chloro-6,7-difluoro-N-((3R,4S)-4-methylpiperidin-3-yl)-1H-indole-2-carboxamide]
≤ 1 µM | N[C@@H]1CCN(C(=O)c2cc3cc(Cl)c(F)c(F)c3[nH]2)C1 [Example 1, (R)-(3-Aminopyrrolidin-1-yl)(5-chloro-6,7-difluoro-1H-indol-2-yl)methanone]
10 to 100 µM | N[C@H]1CN(C(=O)c2cc3cc(Cl)c(F)c(F)c3[nH]2)C[C@H]1F [Example 7, ((3S,4R)-3-Amino-4-fluoro-pyrrolidin-1-yl)-(5-chloro-6,7-difluoro-1H-indol-2-yl)-methanone]
1 to 10 µM | N[C@@H]1CCN(C(=O)c2cc3ccc(Cl)cc3[nH]2)C1 [Example 46, (R)-(3-Aminopyrrolidin-1-yl)(6-chloro-1H-indol-2-yl)methanone]
10 to 100 µM | NCC(NC(=O)c1cc2cc(Cl)c(F)c(F)c2[nH]1)C1CC1 (stereo not drawn) [Example 11, N-(2-Amino-1-cyclopropylethyl)-5-chloro-6,7-difluoro-1H-indole-2-carboxamide]
1 to 10 µM | N[C@@H]1CCN(C(=O)c2cc3cc(Br)ccc3[nH]2)C1 [Example 48, (R)-(3-Aminopyrrolidin-1-yl)(5-bromo-1H-indol-2-yl)methanone]

IC50 | SMILES
1 to 10 µM | O=C(c1cc2cc(Cl)c(F)c(F)c2[nH]1)N1C[C@H]2CNC[C@H]21 [Example 56, (1R,5S)-3,6-diazabicyclo[3.2.0]heptan-6-yl(5-chloro-6,7-difluoro-1H-indol-2-yl)methanone]
1 to 10 µM | N[C@@H]1CCN(C(=O)c2cc3cc(Cl)c(Cl)cc3[nH]2)C1 [Example 44, (R)-(3-Aminopyrrolidin-1-yl)(5,6-dichloro-1H-indol-2-yl)methanone]
> 100 µM | CO[C@H]1CN(C(=O)c2cc3cc(Cl)c(F)c(F)c3[nH]2)C[C@@H]1N [Example 35, ((3S,4S)-3-Amino-4-methoxypyrrolidin-1-yl)(5-chloro-6,7-difluoro-1H-indol-2-yl)methanone]
1 to 10 µM | C[C@@H](CN)N(C)C(=O)c1cc2cc(Cl)c(F)c(F)c2[nH]1 [Example 64, (S)-N-(1-aminopropan-2-yl)-5-chloro-6,7-difluoro-N-methyl-1H-indole-2-carboxamide]
1 to 10 µM | O=C(c1cc2cc(Cl)c(F)c(F)c2[nH]1)N1CC[C@H]2CNC[C@H]21 [Example 57, (5-chloro-6,7-difluoro-1H-indol-2-yl)((3aS,6aS)-hexahydropyrrolo[3,4-b]pyrrol-1(2H)-yl)methanone]
1 to 10 µM | N[C@H]1CN(C(=O)c2cc3cc(Br)c(F)c(F)c3[nH]2)C[C@@H]1O [Example 65, ((3S,4S)-3-amino-4-hydroxypyrrolidin-1-yl)(5-bromo-6,7-difluoro-1H-indol-2-yl)methanone]
1 to 10 µM | C[C@H]1CNC[C@@H]1NC(=O)c1cc2cc(Cl)c(F)c(F)c2[nH]1 [Example 36, 5-Chloro-6,7-difluoro-N-((3R,4S)-4-methylpyrrolidin-3-yl)-1H-indole-2-carboxamide]
10 to 100 µM | N[C@@H]1CCN(C(=O)c2cc3cc(F)ccc3[nH]2)C1 [Example 49, (R)-(3-Aminopyrrolidin-1-yl)(5-fluoro-1H-indol-2-yl)methanone]
1 to 10 µM | C[C@@H]1NC[C@@H]1NC(=O)c1cc2cc(Cl)c(F)c(F)c2[nH]1 [Example 54, 5-chloro-6,7-difluoro-N-((2S,3S)-2-methylazetidin-3-yl)-1H-indole-2-carboxamide]
10 to 100 µM | N[C@@H]1CCN(C(=O)c2cc3cc(F)c(Br)c(F)c3[nH]2)C1 [Example 6, (R)-(3-Aminopyrrolidin-1-yl)(6-bromo-5,7-difluoro-1H-indol-2-yl)methanone]
≤ 1 µM | C[C@@H](CN)NC(=O)c1cc2cc(Cl)c(F)c(F)c2[nH]1 [Example 9, (S)-N-(1-Aminopropan-2-yl)-5-chloro-6,7-difluoro-1H-indole-2-carboxamide]
10 to 100 µM | CN(C(=O)c1cc2cc(Cl)c(F)c(F)c2[nH]1)[C@H]1CCNC1 [Example 51, (S)-5-chloro-6,7-difluoro-N-methyl-N-(pyrrolidin-3-yl)-1H-indole-2-carboxamide]
10 to 100 µM | NCC1(NC(=O)c2cc3cc(Cl)c(F)c(F)c3[nH]2)COC1 [Example 12, N-(3-(Aminomethyl)oxetan-3-yl)-5-chloro-6,7-difluoro-1H-indole-2-carboxamide]
1 to 10 µM | N[C@@H]1CCN(C(=O)c2cc3cc(F)c(F)c(F)c3[nH]2)C1 [Example 3, (R)-(3-Aminopyrrolidin-1-yl)(5,6,7-trifluoro-1H-indol-2-yl)methanone]
10 to 100 µM | O=C(NC[C@@H]1CCNC1)c1cc2cc(Cl)c(F)c(F)c2[nH]1 [Example 63, (R)-5-chloro-6,7-difluoro-N-(pyrrolidin-3-ylmethyl)-1H-indole-2-carboxamide]
10 to 100 µM | N[C@H]1CNC[C@@H]1NC(=O)c1cc2cc(Cl)c(F)c(F)c2[nH]1 [Example 30, N-((3S,4S)-4-Aminopyrrolidin-3-yl)-5-chloro-6,7-difluoro-1H-indole-2-carboxamide]
10 to 100 µM | O=C(N[C@H]1CCCNC1)c1cc2cc(Cl)c(F)c(F)c2[nH]1 [Example 39, (S)-5-Chloro-6,7-difluoro-N-(piperidin-3-yl)-1H-indole-2-carboxamide]
> 100 µM | N[C@H]1CN(C(=O)c2cc3cc(Cl)c(F)c(F)c3[nH]2)CC[C@H]1F [Example 43, ((3S,4R)-3-Amino-4-fluoropiperidin-1-yl)(5-chloro-6,7-difluoro-1H-indol-2-yl)methanone]
1 to 10 µM | O=C(N[C@H]1CCNC1)c1cc2cc(Cl)c(F)c(F)c2[nH]1 [Example 26, (S)-5-Chloro-6,7-difluoro-N-(pyrrolidin-3-yl)-1H-indole-2-carboxamide]
